Active and inactive are the calls of the source.
Key:
[1] = target: G-protein coupled receptor 183 (Homo sapiens, UniProt P32249); assay: SAR confirmation of small molecule antagonists of the EBI2 receptor via a luminescent beta-arrestin assa.; assay type: functional
[2] = Luminescence-based cell-based high throughput dose response assay to identify activators of the DAF-12 from the parasite S. stercoralis (ssDAF-12).; assay type: functional
[3] = target: T1, Oxysterols receptor LXR-beta (Homo sapiens, UniProt P55055); assay: LXR agonists, Gal4 luciferase reporter, dose response, counter-screen for ssDAF-12 agonist project, cell-based, luminescence, HEK293, S. stercoralis campaign (AID 720737); assay type: functional; settings: read-out: IC50 (the source's name)
T1 sequence (P55055 whole entry): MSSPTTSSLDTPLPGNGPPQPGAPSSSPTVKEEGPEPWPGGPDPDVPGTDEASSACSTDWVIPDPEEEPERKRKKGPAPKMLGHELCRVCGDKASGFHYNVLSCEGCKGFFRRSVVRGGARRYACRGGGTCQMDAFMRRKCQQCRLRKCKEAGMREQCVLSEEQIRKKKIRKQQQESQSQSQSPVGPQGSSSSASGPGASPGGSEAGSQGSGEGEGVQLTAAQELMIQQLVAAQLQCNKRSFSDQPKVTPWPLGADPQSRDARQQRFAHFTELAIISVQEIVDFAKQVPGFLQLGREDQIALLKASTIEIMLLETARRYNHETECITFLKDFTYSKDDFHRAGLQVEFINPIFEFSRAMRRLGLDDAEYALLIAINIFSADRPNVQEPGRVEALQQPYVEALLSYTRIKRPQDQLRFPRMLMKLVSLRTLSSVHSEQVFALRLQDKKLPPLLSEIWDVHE

[4] = target: T1, Oxysterols receptor LXR-beta; assay type: functional, cell-based
[5] = cells
[6] = target: Paired box protein Pax-8 (Homo sapiens, UniProt Q06710); assay: inhibitors of PAX8-driven TPO luciferase reporter, dose response, RMG-I cells, cherry-pick (AID 687027); assay type: functional, cell-based;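 further: luciferase reporter driven by Pax8 target thyroperoxidase promoter measured by SteadyGlo luminescence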
[7] = PAX2 cell-based inhibition, dose response, selectivity assay for PAX8 inhibitor project, plate reader, dry powder samples (AID 743048); assay type: functional;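 further: HEK293 cells carrying a WT1 promoter luciferase reporter driven by expressed Pax2; potency is for inhibition of Pax2 driven reporter signal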
[8] = cytotoxicity in COV362 ovarian cancer cells, dose response, cytotoxicity control for PAX8 inhibitor project, cell-based, plate reader, dry powder, SA12 (AID 743144); assay type: functional
[9] = IOSE-T80 ovarian epithelial cell cytotoxicity, dose response, cytotoxicity control for PAX8 inhibitor project, plate reader, dry powder samples (AID 743045); assay type: functional, cell-based
[10] = A2780 ovarian cancer cell cytotoxicity, dose response, cytotoxicity control, plate reader, dry powder samples (AID 743046); assay type: functional, cell-based
[11] = NIH:OVCAR-3 ovarian cancer cell cytotoxicity, dose response, PAX8 inhibitor project, plate reader, dry powder samples (AID 743044); assay type: functional, cell-based
[12] = PAX5 activity inhibitors, dose response, selectivity assay for PAX8 inhibitor project, cell-based, plate reader, dry powder samples (AID 743047); assay type: functional;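 further: HEK293 cells carrying a Pax5 driven CD19 promoter luciferase reporter; potency of inhibitors that lower reporter luminescence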
[13] = IGROV1 ovarian cancer cell cytotoxicity, dose response, PAX8 inhibitor project, plate reader, dry powder samples (AID 743043); assay type: functional, cell-based; settings: IGROV-1
[14] = cytotoxicity in OVCAR4 cells, dose response, cytotoxicity control for PAX8 inhibitor project, cell-based, plate reader, dry powder, SA11 (AID 743150); assay type: functional; settings: OVCAR-4
[15] = cytotoxicity in COV434 cells, dose response, cytotoxicity control for PAX8 inhibitor project, cell-based, plate reader, dry powder, SA7 (AID 743145); assay type: functional
[16] = cytotoxicity in OV-90 ovarian cancer cells, dose response, PAX8 inhibitor project, cell-based, plate reader, dry powder, SA8 (AID 743149); assay type: functional
[17] = cytotoxicity in OVCAR8 ovarian cancer cells, dose response, PAX8 project, cell-based, plate reader, dry powder samples (AID 743197); assay type: functional; settings: OVCAR-8
[18] = cytotoxicity dependent on PAX8, dose response, cell-based, plate reader, dry powder (AID 743049); assay type: functional
[19] = Vero cell cytotoxicity, dose response, cytotoxicity control for Vif-APOBEC3G degradation inhibitor project, Vero cells (AID 1117358); assay type: functional; settings: Human immunodeficiency virus 1, Vero
[20] = target: T2, Cytochrome P450 2C19 (Homo sapiens, UniProt P33261); assay: qHTS Assay for Inhibitors and Substrates of Cytochrome P450 2C19. [Related pubchem assays: 410 ]; assay type: ADME; settings: read-out: Potency
[21] = test system: Streptococcus sp. 'group A'; assay: growth inhibition of control SK(-) GAS strain, dose response, counter-screen for streptokinase expression inhibitor project, luminescence, kanamycin, BacTiterGlo, confirmation (AID 1900); assay type: functional, organism-based; settings: Streptococcus sp. 'group A'
[22] = target: T3, Streptokinase A (Streptococcus pyogenes serotype M1, UniProt P10520); assay: S. pyogenes streptokinase expression inhibitors, potency, dose response, plasminogen activation absorbance, OD405 (AID 1914); assay type: functional, Streptococcus pyogenes M1 GAS;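 further: secreted streptokinase activity via plasminogen activation per viability signal from cell pellet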
T3 sequence (P10520 whole entry): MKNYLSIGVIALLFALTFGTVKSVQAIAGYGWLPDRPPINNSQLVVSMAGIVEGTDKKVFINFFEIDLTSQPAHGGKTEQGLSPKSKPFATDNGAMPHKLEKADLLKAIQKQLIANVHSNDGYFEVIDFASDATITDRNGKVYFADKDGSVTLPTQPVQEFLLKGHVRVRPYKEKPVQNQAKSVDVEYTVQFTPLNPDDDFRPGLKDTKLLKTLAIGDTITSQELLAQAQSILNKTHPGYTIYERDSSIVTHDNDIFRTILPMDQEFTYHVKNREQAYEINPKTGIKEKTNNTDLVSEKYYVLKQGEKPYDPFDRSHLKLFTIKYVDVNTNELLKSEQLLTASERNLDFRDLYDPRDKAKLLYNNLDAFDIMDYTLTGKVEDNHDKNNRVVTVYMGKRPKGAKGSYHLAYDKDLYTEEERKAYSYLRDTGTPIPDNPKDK

[23] = test system: Streptococcus; assay: Group A Streptococcus viability loss, dose response, counter-screen for streptokinase expression inhibitor project, luminescence, BacTiterGlo (AID 1915); assay type: functional, organism-based; settings: Streptococcus;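 further: potency for reduction of bacterial viability or growth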
[24] = target: T2, Cytochrome P450 2C19; assay: Cytochrome panel assay with activity outcomes. Panel member name: p450-cyp2c19 Compounds with AC50 equal or less than 10 uM are considered active; assay type: functional; settings: read-out: AC50
[25] = target: T4, Cytochrome P450 3A4 (Homo sapiens, UniProt P08684); settings: Potency
[26] = target: T4, Cytochrome P450 3A4
[27] = target: Voltage-gated inwardly rectifying potassium channel KCNH2 (Homo sapiens, UniProt Q12809); settings: Potency;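 further: confirmatory quantitative high-throughput screen measuring inhibition of hERG channel activity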
[28] = test system: HEK293; assay: HEK293T cell cytotoxicity, dose response, cytotoxicity control, ATP luminescence, cherry-pick samples (AID 687005); assay type: functional, cell-based; settings: Homo sapiens;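 further: cells exposed to compound for 48 hours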
[29] = HEK293 Cytotoxicity Assay Measured in Cell-Based System Using Plate Reader - 7071-01_Inhibitor_Dose_CherryPick_Activity_Set2.; assay type: functional
[30] = A549 cell cytotoxicity, dose response, cytotoxicity control, plate reader, dry powder, set 6 (AID 743312); assay type: functional, cell-based
[31] = HEK293T cell cytotoxicity, dose response, cytotoxicity control, plate reader, dry powder, set 10 (AID 743315); assay type: functional, cell-based; settings: HEK293
[32] = cells; settings: HEK293
[33] = target: Heat shock protein HSP 90-alpha (Homo sapiens, UniProt P07900); assay: Luminescence-based dose response biochemical high throughput screening assay for inhibitors of the Heat Shock Protein 90 (HSP90). [Related pubchem assays: 1831 (Summary AID.), 1846 (Confirmation screen.), 1789 (Primary screen.)]
[34] = test system: A-375; assay: MITF: Counter assay: A375 proliferation Measured in Cell-Based System Using Plate Reader - 2084-03_Inhibitor_Dose_DryPowder_Activity. [Related pubchem assays (depositor defined):AID488944]; assay type: functional; settings: Homo sapiens
[35] = test system: A-375; assay: A375 melanoma cell viability reduction, dose response, counter-screen for MITF modulator project, cherry-pick samples, set 2 (AID 540335); assay type: functional, cell-based; settings: Homo sapiens
[36] = target: Muscarinic acetylcholine receptor M5 (Rattus norvegicus, UniProt P08911); assay: Discovery of Novel Antagonists of Muscarinic Receptor M5: Counterscreen against RAT M5.; assay type: functional
[37] = target: Muscarinic acetylcholine receptor M5 (Homo sapiens, UniProt P08912); assay: M5 muscarinic receptor antagonist potency, dose response, cell-based, CHO-K1 hM5, Fluo-4 calcium flux, ACh EC80 (AID 743110); assay type: functional
Muscarinic acetylcholine receptor M5 (Homo sapiens, UniProt P08912), sequence (P08912 whole entry): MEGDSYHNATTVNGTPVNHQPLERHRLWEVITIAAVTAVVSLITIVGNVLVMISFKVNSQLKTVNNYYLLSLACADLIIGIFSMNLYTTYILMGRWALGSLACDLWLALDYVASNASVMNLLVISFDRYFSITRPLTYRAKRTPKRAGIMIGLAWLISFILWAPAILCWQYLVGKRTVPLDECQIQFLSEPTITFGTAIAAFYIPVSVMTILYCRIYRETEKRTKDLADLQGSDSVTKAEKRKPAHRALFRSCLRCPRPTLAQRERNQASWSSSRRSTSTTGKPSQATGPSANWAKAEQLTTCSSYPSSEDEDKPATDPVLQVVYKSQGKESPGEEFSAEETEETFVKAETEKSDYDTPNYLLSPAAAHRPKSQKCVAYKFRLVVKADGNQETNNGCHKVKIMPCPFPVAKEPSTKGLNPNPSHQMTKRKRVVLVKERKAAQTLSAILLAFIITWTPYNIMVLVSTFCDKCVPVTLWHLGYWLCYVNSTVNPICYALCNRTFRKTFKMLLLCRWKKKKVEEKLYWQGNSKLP

T4 sequence (P08684 whole entry): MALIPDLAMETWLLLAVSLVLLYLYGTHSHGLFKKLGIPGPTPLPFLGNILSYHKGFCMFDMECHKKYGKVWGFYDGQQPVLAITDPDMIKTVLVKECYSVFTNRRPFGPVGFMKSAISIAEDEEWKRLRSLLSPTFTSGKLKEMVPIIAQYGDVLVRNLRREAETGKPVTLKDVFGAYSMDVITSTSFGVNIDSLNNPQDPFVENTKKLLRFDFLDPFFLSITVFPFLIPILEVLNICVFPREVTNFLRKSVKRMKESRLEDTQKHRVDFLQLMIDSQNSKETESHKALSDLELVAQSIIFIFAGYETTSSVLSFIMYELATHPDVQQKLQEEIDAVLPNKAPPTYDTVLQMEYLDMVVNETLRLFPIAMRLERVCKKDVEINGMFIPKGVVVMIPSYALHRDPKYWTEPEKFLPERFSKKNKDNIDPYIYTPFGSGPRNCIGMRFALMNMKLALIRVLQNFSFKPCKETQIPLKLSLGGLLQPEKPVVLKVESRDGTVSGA
T2 sequence (P33261 whole entry): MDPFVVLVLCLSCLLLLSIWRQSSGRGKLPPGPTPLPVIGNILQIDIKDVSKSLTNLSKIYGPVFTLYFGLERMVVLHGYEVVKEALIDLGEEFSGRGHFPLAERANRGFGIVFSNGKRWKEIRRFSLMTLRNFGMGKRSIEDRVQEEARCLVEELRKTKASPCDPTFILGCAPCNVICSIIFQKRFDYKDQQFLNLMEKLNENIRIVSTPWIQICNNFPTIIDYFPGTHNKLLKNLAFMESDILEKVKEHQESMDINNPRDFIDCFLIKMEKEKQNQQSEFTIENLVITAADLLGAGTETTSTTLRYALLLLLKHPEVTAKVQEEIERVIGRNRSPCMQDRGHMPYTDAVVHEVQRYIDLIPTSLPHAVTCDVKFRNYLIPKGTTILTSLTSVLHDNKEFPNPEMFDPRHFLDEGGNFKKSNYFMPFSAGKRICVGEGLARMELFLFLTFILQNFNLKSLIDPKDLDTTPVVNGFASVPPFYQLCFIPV
Voltage-gated inwardly rectifying potassium channel KCNH2, sequence (Q12809 whole entry): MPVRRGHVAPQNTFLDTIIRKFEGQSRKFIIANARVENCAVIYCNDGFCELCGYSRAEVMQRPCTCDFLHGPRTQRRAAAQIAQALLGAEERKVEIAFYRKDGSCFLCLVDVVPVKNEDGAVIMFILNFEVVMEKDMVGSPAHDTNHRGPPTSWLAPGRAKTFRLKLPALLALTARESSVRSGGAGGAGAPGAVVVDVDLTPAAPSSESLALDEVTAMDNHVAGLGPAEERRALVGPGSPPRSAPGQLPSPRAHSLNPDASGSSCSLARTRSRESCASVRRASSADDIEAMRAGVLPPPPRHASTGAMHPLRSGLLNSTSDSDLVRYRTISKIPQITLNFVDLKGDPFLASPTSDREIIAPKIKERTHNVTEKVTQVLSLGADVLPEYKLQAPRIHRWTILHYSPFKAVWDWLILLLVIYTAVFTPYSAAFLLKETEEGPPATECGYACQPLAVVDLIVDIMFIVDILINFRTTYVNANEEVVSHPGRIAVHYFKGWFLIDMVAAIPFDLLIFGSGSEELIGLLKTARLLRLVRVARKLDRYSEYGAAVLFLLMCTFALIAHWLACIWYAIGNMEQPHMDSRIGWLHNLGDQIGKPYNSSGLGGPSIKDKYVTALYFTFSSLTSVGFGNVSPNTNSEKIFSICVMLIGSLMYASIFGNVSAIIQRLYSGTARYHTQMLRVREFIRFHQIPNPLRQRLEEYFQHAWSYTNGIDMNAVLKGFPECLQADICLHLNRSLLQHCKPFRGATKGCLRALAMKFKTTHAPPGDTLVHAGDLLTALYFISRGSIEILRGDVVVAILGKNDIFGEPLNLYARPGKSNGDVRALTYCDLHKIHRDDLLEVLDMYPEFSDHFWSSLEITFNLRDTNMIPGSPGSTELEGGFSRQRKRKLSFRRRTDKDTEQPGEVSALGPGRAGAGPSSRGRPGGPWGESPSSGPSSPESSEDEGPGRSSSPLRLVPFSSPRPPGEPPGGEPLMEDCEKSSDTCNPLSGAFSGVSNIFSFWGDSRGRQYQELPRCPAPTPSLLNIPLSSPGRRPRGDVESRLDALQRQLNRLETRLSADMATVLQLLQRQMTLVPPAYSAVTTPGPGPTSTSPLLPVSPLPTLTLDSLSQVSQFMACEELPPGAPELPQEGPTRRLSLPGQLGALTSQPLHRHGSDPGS
Muscarinic acetylcholine receptor M5 (Rattus norvegicus, UniProt P08911), sequence (P08911 whole entry): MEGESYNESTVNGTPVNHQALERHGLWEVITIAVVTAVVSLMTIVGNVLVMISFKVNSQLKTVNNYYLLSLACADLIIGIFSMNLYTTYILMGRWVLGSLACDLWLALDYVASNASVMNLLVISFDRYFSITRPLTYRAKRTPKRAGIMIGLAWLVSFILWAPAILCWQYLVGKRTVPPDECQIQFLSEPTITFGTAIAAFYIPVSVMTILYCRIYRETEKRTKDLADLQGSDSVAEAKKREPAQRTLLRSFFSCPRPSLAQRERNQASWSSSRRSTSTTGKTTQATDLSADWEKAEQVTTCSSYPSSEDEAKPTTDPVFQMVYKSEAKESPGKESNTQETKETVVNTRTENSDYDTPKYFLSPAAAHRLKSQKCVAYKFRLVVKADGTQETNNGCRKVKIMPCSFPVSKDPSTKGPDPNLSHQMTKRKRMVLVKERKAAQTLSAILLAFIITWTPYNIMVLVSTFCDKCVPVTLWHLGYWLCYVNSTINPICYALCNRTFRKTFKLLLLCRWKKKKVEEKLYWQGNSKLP
G-protein coupled receptor 183, sequence (P32249 whole entry): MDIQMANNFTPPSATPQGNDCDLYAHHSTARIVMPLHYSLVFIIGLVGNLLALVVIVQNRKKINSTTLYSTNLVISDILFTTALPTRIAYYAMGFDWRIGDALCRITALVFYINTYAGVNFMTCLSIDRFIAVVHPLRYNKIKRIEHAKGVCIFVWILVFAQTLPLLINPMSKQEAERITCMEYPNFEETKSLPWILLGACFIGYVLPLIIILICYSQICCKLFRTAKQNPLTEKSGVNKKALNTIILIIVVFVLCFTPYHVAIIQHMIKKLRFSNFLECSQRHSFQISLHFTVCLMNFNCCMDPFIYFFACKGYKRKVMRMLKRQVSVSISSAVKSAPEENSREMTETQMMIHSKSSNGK
Paired box protein Pax-8, sequence (Q06710 whole entry): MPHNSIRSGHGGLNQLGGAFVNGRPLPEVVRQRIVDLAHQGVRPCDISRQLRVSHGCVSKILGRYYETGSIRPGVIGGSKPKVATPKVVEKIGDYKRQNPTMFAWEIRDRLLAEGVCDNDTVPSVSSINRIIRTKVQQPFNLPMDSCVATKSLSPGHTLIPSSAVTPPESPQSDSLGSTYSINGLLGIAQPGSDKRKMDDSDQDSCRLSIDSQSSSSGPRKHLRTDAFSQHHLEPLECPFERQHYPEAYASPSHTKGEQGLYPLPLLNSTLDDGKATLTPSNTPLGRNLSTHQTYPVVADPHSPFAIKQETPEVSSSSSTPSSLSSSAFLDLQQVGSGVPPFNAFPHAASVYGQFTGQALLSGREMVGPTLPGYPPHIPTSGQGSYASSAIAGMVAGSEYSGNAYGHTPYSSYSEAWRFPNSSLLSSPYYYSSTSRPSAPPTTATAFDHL

For `COc1cc(CN2CCN(C(=O)/C=C/c3ccc(Br)cc3)CC2)cc(OC)c1`, the IC50 [1] was 0.00364 µM (active).

In the case of `Clc1ccc(-c2nc3n(n2)Cc2ccccc2-3)cc1`, the IC50 [2] is reported as > 67.5 µM (inactive), the EC50 [3] is reported as > 67.5 µM (inactive) and the EC50 [4] is reported as > 67.5 µM (inactive). The EC50 [5] was > 67.5 µM (inactive).

For `CN(C[C@H]1N[C@@H](CO)[C@@H]1c1ccc(-c2cccnc2)cc1)C(=O)c1ccccc1`, the AC50 [6] was 2.89 µM (active), the AC50 [7] was > 32 µM (inactive) and the AC50 [8] was 7.42 µM (active). The AC50 [9] was 23.4 µM (active), the AC50 [10] was 13.8 µM (active) and the AC50 [11] was 7.22 µM (active). The AC50 [12] was 15.8 µM (active), the AC50 [13] was 5.83 µM (active) and the AC50 [14] was 5.14 µM (active). The AC50 [15] was 11.3 µM (active), the AC50 [16] was 14.5 µM (active) and the AC50 [17] was 8.64 µM (active). The AC50 [18] was 9.82 µM (active).

With `COc1c(OC(C)=O)ccc(/C=C/c2ccc3ccccc3n2)c1[N+](=O)[O-]` the CC50 [19] was 33.2 µM (active).

In the case of `CCCN(CC1CC1)c1nc(C)nc(Nc2c(Cl)cc(Cl)cc2Cl)c1Cl`, the AC50 [20] is reported as 7.94 µM (inconclusive), the EC50 [21] is reported as 1.39 µM (active) and the EC50 [22] is reported as 1.31 µM (active). The EC50 [23] was 15.2 µM (active), the AC50 [24] was 31.6 µM (inconclusive) and the AC50 [25] was 12.6 µM (inconclusive). For the same compound, the AC50 [26] was 15.8 µM (inconclusive) and the AC50 [27] was 14.1 µM (inconclusive).

For `CCCN1C[C@H](C)[C@@H](OC)CN(C)C(=O)c2cc(NC(=O)c3cccc(F)c3)ccc2OC[C@@H]1C`, the AC50 [28] was 19.8 µM (active) and the AC50 [29] was 19.8 µM (active).

For `CC(C)(C)c1ccc(OCCn2cnc3ccccc32)cc1`, the AC50 [30] was 23.9 µM (active), the AC50 [31] was 15.9 µM (active) and the AC50 [32] was 20.9 µM (active).

For `COC(=O)c1ccc(COc2ccc3c(c2)CCC3)o1`, the IC50 [33] was > 7 µM (active), the AC50 [34] was > 35 µM (active) and the AC50 [35] was > 35 µM (active).

With `CC(=O)c1cccc(NCc2cc(C(=O)N(C)C(C)c3ccccn3)no2)c1` (configuration not stated) the IC50 [36] was 7.11 µM (active) and the IC50 [37] was 6.77 µM (active).
